Reference: US4912036A, “Rapid differentiation of bacteria using cyclic polypeptide antibiotics” (Eastman Kodak Company, priority 1986, dated 1990)

Legend:
S. aureus = experiment: Inhibition of RIND IX reduction by various cyclic polypeptide antibiotics; assay type: cell-based, Staphylococcus aureus; details: Test Method 2 (cells preincubated with 50 μl antibiotic solution 30 minutes, centrifuged, pellet assayed), S. aureus, 635 nm
Procedure: The following materials were used in this example: stock solutions of RIND IX compound dispersion prepared as described above, glucose (10% in water), trimethyl-1,4-benzoquinone ETA (1.5 mg/ml methanol), and the antibiotics (1 mg/ml in dimethylsulfoxide). S. aureus cells were grown as described above. The final cell concentration in the assay mixture was about 4.3×10^8 cells/ml.
Test solutions were prepared by adding in the order: 1.2 ml of HEPES buffer, 50 μl glucose solution, 1.5 ml of RIND IX dispersion, 100 μl of antibiotic solution, 100 μl of cell suspension and 25 μl of ETA solution. Control solutions were prepared as described in Examples 2 and 3. Optical density readings (OD) were measured at 635 nm at 0 minutes and after incubation at 37° C. for 30 minutes for test and control solutions, and the change in density (ΔOD) was determined. Table VI below lists the results, expressed as corrected percent inhibition of the reduction of the RIND compound. The corrected percent inhibition is calculated by dividing the difference between the ΔOD obtained from the Cell Control without antibiotic and the ΔOD of the test solution, by ΔOD of the Cell Control without antibiotic. All readings were corrected by subtracting readings of the appropriate background Controls.
Solutions containing 2.9 ml HEPES, 50 μl of the antibiotic solution and 100 μl cell solution were incubated at 37° C. for 30 minutes, centrifuged for 10 minutes and decanted. The resulting pellet was then treated with 1.4 ml HEPES, 50 μl glucose solution, 1.5 ml RIND IX dispersion and 25 μl ETA solution, mixed well and the densities recorded as described above in Method 1. The corrected percent inhibition data was calculated as described in Method 1 above.

E. cloacae = experiment: RIND XXIX reduction solution assay, Δ fluorescence; assay type: cell-based, Enterobacter cloacae; details: E. cloacae (gram -) about 5×10^7 cells/ml, polymixin B at 0.01 mg/ml of methanol
Procedure: (§1) Bacterial suspensions were prepared by growing the cells in BHT broth to stationary phase overnight at 37° C. P. auruginosa was grown with agitation. About 40 ml of each overnight culture was centrifuged, decanted and washed once with 0.05 molar potassium phosphate buffer or 0.05 molar N-2-hydroxy-ethylpiperazine-N'-2-ethanesulfonic acid (HEPES) buffer, pH 7.8, and resuspended in buffer.
(§2) Dispersions containing RIND compounds were prepared by dissolving the RIND compound in N,N-dimethylformamide (DMF) at 16 mg compound per ml of solvent. An aliquot (250 μl) of the resulting solution was added to 500 μl of TRITON X-100 surfactant. This mixture was then added dropwise with stirring to 25 ml of 0.05 molar HEPES buffer. A dispersion of RIND XXIX was prepared similarly except that DMF was acidified with 0.1% sulfuric acid. Compositions containing water-compatible RIND compounds were prepared as described above except the surfactant was omitted.
(§3) Each test solution contained the following: dispersion of RIND XXIX (25 μl) prepared as described above, glucose (400 μl of 10% aqueous solution), tryptose (400 μl of 10% aqueous solution), trimethyl-1,4-benzoquinone ETA (500 μl of 1.5 mg/ml methanol). Aliquots (200 μl) of the mixture were mixed with solutions of the antibiotics (50 μl). The cell suspensions (50 μl) were then added. The final concentration of gramcidin S and tyrocidin were 0.1 mg/ml and 3.3 mg/ml, respectively. The final cell concentration was about 5×10^7 cells/ml. Cell control solutions contained all reagents except antibiotics. Background controls consisted of both buffer and solution controls. […]
(§4) The solutions were incubated at 37° C. for 30 minutes, and the change in fluorescence emission (Δ fluorescence) was determined as the difference between the readings taken when the solutions were first mixed and then after 30 minutes incubation. Measurements were made in a commercially available MICROFLUOR Reader (available from Dynatech Laboratories, Alexandria, Virginia, U.S.A.), modified with an excitation filter at 540 nm, an emission filter at 620 nm and a Xenon lamp. […]

E. coli = experiment: RIND XXIX reduction solution assay, Δ fluorescence; assay type: cell-based, Escherichia coli; details: E. coli (gram -) about 5×10^7 cells/ml, polymixin B at 0.01 mg/ml of methanol
Procedure: as §1, §2, §3, §4

K. pneumoniae = experiment: RIND XXIX reduction solution assay, Δ fluorescence; assay type: cell-based, Klebsiella pneumoniae; details: K. pneumoniae (gram -) about 5×10^7 cells/ml, polymixin B at 0.01 mg/ml of methanol
Procedure: as §1, §2, §3, §4

P. vulgaris = experiment: RIND XXIX reduction solution assay, Δ fluorescence; assay type: cell-based, Proteus vulgaris; details: P. vulgaris (gram -) about 5×10^7 cells/ml, polymixin B at 0.01 mg/ml of methanol
Procedure: as §1, §2, §3, §4

P. aeruginosa = experiment: RIND XXIX reduction solution assay, Δ fluorescence; assay type: cell-based, Pseudomonas aeruginosa; details: P. aeruginosa (gram -) about 5×10^7 cells/ml, polymixin B at 0.01 mg/ml of methanol
Procedure: as §1, §2, §3, §4

[1] = tested on: viable gram-positive and gram-negative bacteria; experiment: Differentiation in RIND XXIX solution assays, overall result; assay type: cell-based; details: polymixin B at 0.01 mg/ml of methanol
Procedure: Each test solution contained the following: dispersion of RIND XXIX (25 μl) prepared as described above, glucose (400 μl of 10% aqueous solution), tryptose (400 μl of 10% aqueous solution), trimethyl-1,4-benzoquinone ETA (500 μl of 1.5 mg/ml methanol). Aliquots (200 μl) of the mixture were mixed with solutions of the antibiotics (50 μl). The cell suspensions (50 μl) were then added. The final concentration of gramcidin S and tyrocidin were 0.1 mg/ml and 3.3 mg/ml, respectively. The final cell concentration was about 5×10^7 cells/ml. Cell control solutions contained all reagents except antibiotics. Background controls consisted of both buffer and solution controls. The buffer control contained all reagents except antibiotics and cells. The solution control contained all reagents except cells.
The solutions were incubated at 37° C. for 30 minutes, and the change in fluorescence emission (Δ fluorescence) was determined as the difference between the readings taken when the solutions were first mixed and then after 30 minutes incubation. Measurements were made in a commercially available MICROFLUOR Reader (available from Dynatech Laboratories, Alexandria, Virginia, U.S.A.), modified with an excitation filter at 540 nm, an emission filter at 620 nm and a Xenon lamp.
This example illustrates the practice of this invention to identify a Proteus species in solution. Test solutions and cell control solutions were prepared and tested as described in Example 2 and 3 except that polymixin B was used at 0.01 mg/ml of methanol. The final cell concentration was about 5×10^7 cells/ml.

Row | Substance | Corrected % Inhibition (S. aureus) | Δ Relative Fluorescence (30 Minutes) (E. cloacae) | Δ Relative Fluorescence (30 Minutes) (E. coli) | Δ Relative Fluorescence (30 Minutes) (K. pneumoniae) | Δ Relative Fluorescence (30 Minutes) (P. vulgaris) | Δ Relative Fluorescence (30 Minutes) (P. aeruginosa) | inhibition of reduction of RIND XXIX by gram-negative microorganisms, in words [1]
1 | virginiamycin | No Inhibition | – | – | – | – | – | –
2 | polymixin B | – | 1975 | 1245 | 1212 | 3079 | 1287 | inhibited all of the gram-negative microorganisms except Proteus vulgaris from reducing the RIND XXIX compound
